What was measured:
trehalose phosphorylase [1] = biological target: T1, trehalose phosphorylase (Thermoanaerobacter brockii, UniProt Q8L164); assay: Transglucosylation to polyalcohols by trehalose phosphorylase (GC analysis); assay type: biochemical, Thermoanaerobium brockii; design: key to Transfer of a glucosyl residue (Transglucosylation): +++: the area of 60% or higher; ++: 30% or higher but less than 60%; +: 0% or higher but less than 30%; −: Transglucosylation was not detected; settings: 1% (w/v) polyalcohol as acceptor, 1.4% (w/v) β-G1P, pH 6.0, 50° C., 24 hours; for Transfer of a glucosyl residue (Transglucosylation): one unit/ml enzyme, peak area of transferred product to total peak area
T1 construct: cells collected from the culture were disrupted by ultrasonication and then, the supernatant was collected; made in house; host or cells: Thermoanaerobium brockii ATCC 35047 (natural producer, not recombinant); purified by DEAE, butyl and gel filtration chromatography
T1 sequence (Q8L164 1-774): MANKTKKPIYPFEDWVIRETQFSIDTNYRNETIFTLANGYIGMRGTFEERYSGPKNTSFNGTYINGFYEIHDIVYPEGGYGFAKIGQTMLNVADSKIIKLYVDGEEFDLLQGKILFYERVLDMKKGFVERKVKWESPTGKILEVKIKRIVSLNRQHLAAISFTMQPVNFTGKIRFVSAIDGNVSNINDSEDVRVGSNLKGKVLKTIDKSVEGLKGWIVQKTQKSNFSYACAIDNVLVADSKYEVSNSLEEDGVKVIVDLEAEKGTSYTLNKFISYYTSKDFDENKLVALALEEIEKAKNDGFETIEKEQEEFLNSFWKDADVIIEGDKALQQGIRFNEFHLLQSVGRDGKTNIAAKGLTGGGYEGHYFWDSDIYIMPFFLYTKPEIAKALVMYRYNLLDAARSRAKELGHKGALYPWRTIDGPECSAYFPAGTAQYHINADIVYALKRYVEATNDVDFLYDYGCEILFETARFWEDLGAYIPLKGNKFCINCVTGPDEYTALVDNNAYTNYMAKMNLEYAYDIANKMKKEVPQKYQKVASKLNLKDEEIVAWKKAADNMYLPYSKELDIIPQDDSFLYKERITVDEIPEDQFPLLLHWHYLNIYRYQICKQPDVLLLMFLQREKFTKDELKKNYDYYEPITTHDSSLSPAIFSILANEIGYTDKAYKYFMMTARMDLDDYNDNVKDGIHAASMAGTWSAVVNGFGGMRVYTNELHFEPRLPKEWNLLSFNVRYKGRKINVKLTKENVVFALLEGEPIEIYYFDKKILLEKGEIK
Description: (§1) An aqueous solution containing 1% (w/v) of either of polyalcohols (all reagent grade), shown in Table 1 below, 1.4% (w/v) of a reagent grade β-G1P, one unit/ml of trehalose phosphorylase obtained in Example 1-1, and 50 mM acetate buffer (pH 6.0) was prepared and followed by the enzyme reaction while keeping the solution at 50° C. for 24 hours. After the reaction, a portion of each reaction mixture was withdrawn, dried, and dissolved in pyridine for gas chromatography analysis (hereinafter, simply abbreviated as “GC”). In GC analysis, a stainless steel column (internal diameter 3 mm×length 2 m) packed with 2% Silicon OV-17/Chromosorb W”, commercialized by GL Science, Tokyo, Japan) was used. Nitrogen gas was used as carrier gas and the flow rate was set to 40 ml/min. A column oven was controlled to rise a column temperature at 160° C. to 320° C. in a rate of 7.5° C./min after the injection of samples. A hydrogen-flame ion detector was used for the detection. An aqueous solution with the same composition except for trehalose phosphorylase was prepared, kept with the same condition described above, and analyzed by GC by the same condition to confirm the chromatogram of non-reacted polyalcohol and β-G1P. Transfer of a glucosyl residue to each polyalcohol was judged by detecting new peak(s) in the chromatogram of the reaction mixture. The amount of glucosyl-transferred polyalcohol formed by the reaction was estimated based on a peak area of the glucosyl-transferred polyalcohol to the total peak area including that of non-reacted (residual) polyalcohol, and classified into three groups of the area of 60% or higher, “+++”; 30% or higher but less than 60%, “++”; and 0% or higher but less than 30%, “+”.

trehalose phosphorylase [2] = biological target: T1, trehalose phosphorylase; assay: Transglucosylation to glucuronic acid and C-6DGs by trehalose phosphorylase (GC analysis); assay type: biochemical, Thermoanaerobium brockii; settings: 1% (w/v) glucuronic acid or C-6DG as acceptor, 1.4% (w/v) β-G1P, one unit/ml enzyme, pH 6.0, 50° C., 24 hours; peak area of transferred product to total peak area
Description: as §1
An aqueous solution containing 1% (w/v) of any one of glucuronic acid or C-6DGs (all reagent grade), shown in Table 2 below, 1.4% (w/v) of a reagent grade β-G1P, one unit/ml of trehalose phosphorylase obtained in Example 1-1, and 50 mM acetate buffer (pH 6.0) was prepared and followed by the enzyme reaction while keeping the solution at 50° C. for 24 hours. After the reaction, each reaction mixture was analyzed by GC described in Example 1-2. In the same manner as described in Example 1-2, the amount of a glucosyl-transferred product formed by the reaction was estimated based on a peak area of the glucosyl-transferred product to the total peak area including that of non-reacted (remaining) glucuronic acid or C-6DGs, and classified into three groups of the area of 60% or higher, “+++”; 30% or higher but less than 60%, “++”; and 0% or higher but less than 30%, “+”.

Molecule	Transfer of a glucosyl residue (Transglucosylation) (trehalose phosphorylase [1])	Transglucosylation to the polyalcohol, stated in words (trehalose phosphorylase [1])	Transfer of a glucosyl residue (Transglucosylation) (trehalose phosphorylase [2])
OC[C@@H](O)[C@@H](O)CO [Erythritol]	+ (0% or higher but less than 30%)	transferred a glucosyl residue	–
O=C[C@H](O)[C@@H](O)[C@H](O)[C@H](O)C(=O)O [Glucuronic acid]	–	–	+ (0% or higher but less than 30%)
OCC(O)CO [Glycerol]	+ (0% or higher but less than 30%)	transferred a glucosyl residue	–
OC[C@H]1O[C@H](OC[C@H]2OC(O)[C@H](O)[C@@H](O)[C@@H]2O)[C@H](O)[C@@H](O)[C@@H]1O (stereo partly shown) [Isomaltose]	–	–	+++ (the area of 60% or higher)
OC[C@H]1O[C@H](OC[C@H]2O[C@H](OC[C@H]3OC(O)[C@H](O)[C@@H](O)[C@@H]3O)[C@H](O)[C@@H](O)[C@@H]2O)[C@H](O)[C@@H](O)[C@@H]1O (stereo partly shown) [Isomaltotriose]	–	–	+++ (the area of 60% or higher)
OC[C@H]1O[C@H](O[C@H]2[C@H](O)[C@@H](O)[C@@H](OC[C@H]3OC(O)[C@H](O)[C@@H](O)[C@@H]3O)O[C@@H]2CO)[C@H](O)[C@@H](O)[C@@H]1O (stereo partly shown) [Isopanose]	–	–	+++ (the area of 60% or higher)
OC[C@H]1O[C@H](OCC2O[C@@H](O)[C@H](O)[C@@H](O)[C@@H]2O)[C@H](O)[C@@H](O)[C@H]1O (stereo partly shown) [Melibiose]	–	–	+++ (the area of 60% or higher)
OC[C@@H](O)[C@@H](O)[C@@H](O)CO [Ribitol]	+ (0% or higher but less than 30%)	transferred a glucosyl residue	–
OC[C@@H](O)[C@@H](O)[C@H](O)[C@@H](O)CO [Sorbitol]	−*	no transglucosylation	–
O[C@H]1[C@H](O)[C@@H](O)[C@H](O)[C@@H](O)[C@H]1O [myo-Inositol]	++ (30% or higher but less than 60%)	transferred a glucosyl residue	–
Gentiobiose	–	–	+++ (the area of 60% or higher)

— patent publication US20070154996A1, “Method for transferring a glucosyl residue” (priority 2004, published 2007)
